Consider 3 molecules from US20040214799A1, “Cancerous metastasis inhibitors containing carbacyclic phosphatidic acid derivatives” (priority 2001, published 2004).

One series relates to HT-1080 cells. As to conditions: Mukai et al., Int. J. Cancer 81, 918-922 (1999); cited from earlier work.
Series [1] concerns MM1 cells. To be noted: reported by Mukai et al., Int. J. Cancer 81, 918-922 (1999); cited from earlier work.
Series [2] deals with MM1 cells. Nature of the series: Measurement of intracellular cAMP in MM1 cells. The series is classed as cell-based, rat. As to conditions: 25 μM cPA or 10 μM Forskolin, pretreated with 1 mM IBMX. As for the experimental part: After a certain time period, 10% ice-cooled TCA was added to stop the reaction. The centrifuged supernatant was washed 4 times with water-saturated diethylether to remove TCA, and then placed under nitrogen gas flow at 60° C. to remove the solvent completely. cAMP in the resultant sample was measured using a cyclic AMP [^3H] assay system (Amersham).

Series [3] has as its system MM1 cells. The experiment in a line: In vitro invasion assay, LPA-induced invasion of MM1 cells across mesothelial cell monolayer. In kind it is cell-based, rat. As to conditions: 25 μM LPA; for invasion suppressing activity on LPA-induced invasion, carba-cPA at low concentration (in words): 0.5 μM, 1 μM or 10 μM carba-cPA. As for the experimental part:
The abdomen of a male DONRYU rat (300 g, NIPPON BIO-SUPP. CENTER) was opened aseptically. The thus obtained mesenterium was treated with 0.25% trypsin at 37° C. for 15 minutes, filtrated with a 150 μm stainless mesh, and then centrifuged to collect mesothelial cells. The cells were cultured under conditions of 37° C. and 5% CO2 in a medium which was obtained by adding 10% FBS to Eagle's MEMI (Nissui) supplemented with Eagle's MEM amino acid vitamin medium (Nissui) in a volume twice as great as that of the MEMI. A mesothelial cell monolayer which had reached a confluent density after 1 week of culturing was used for invasion assay.
The MM1 cells, which are highly invasive clones of rat ascites hepatoma cells (AH-130), were established by Mukai et al., (Int. J. Cancer : 81, 918-922 (1999)), and was cultured under the same conditions as those for mesothelial cells.
In vitro invasion assay was developed by Akedo et al (Akedo, H et al., Cancer Res. 46, 2416-2422 (1986)). MM1 cells were multi-layer-cultured on the mesothelial cell layer, which had been grown to reach a confluent density, in the presence of 10% FBS or 25 μM LPA (SIGMA). 25 μM cPA was then added. The cells were cultured under conditions of 37° C. and 5% CO2 for 20 hours, and then fixed with 10% formalin. The number of colonies of MM1 cells that had invaded was counted under a phase-contrast microscope (FIG. 3).
cPA and LPA were ice-cooled in PBS containing 0.1% fatty-acid free BSA (SIGMA), ultrasonicated, emulsified, stored at −20° C., and then used.
0.5 μM, 1 μM and 10 μM carba-cPA were added to MM1 cells, and then in vitro invasion assay was performed similarly to (1-1) in the presence of 25 μM LPA.
The following reagents were respectively added to an in vitro invasion assay system so as to examine their effects on MM1 cell invasion in the presence of 25 μM LPA: Forskolin (Wako) which directly activates adenylate cyclase (cAMP synthase); cholera toxin (CTX) (GIBCO BRL) which prevent the deactivation of G protein (Gs) which activates adenylate cyclase; Bt2cAMP (nacalai tesque) which can pass through the membrane and functions in a manner similar to that of cAMP when it enters the cell; or isobutylmethylxanthine (IBMX, 3-isobutyl-1-methylxanthine) (SIGMA) which inhibits phosphodiesterase (cAMP degrading enzyme).

Series [4] is described as follows: General state and body weight of B16-F0 melanoma-bearing mice. The series is classed as in vivo. As to conditions: for Body weight (g) day 0: day 0, mean ± S.D.; for Body weight (g) day 0 / Body weight (g) day 4 / Body weight (g) day 7 / Body weight (g) day 11 / Body weight (g) day 14: N 6; for Body weight (g) day 4: day 4, mean ± S.D.; for Body weight (g) day 7: day 7, mean ± S.D.; for Body weight (g) day 11: day 11, mean ± S.D.; for Body weight (g) day 14: day 14, mean ± S.D.; for body weight compared with the medium group at each measurement (in words): days 0, 4, 7, 11, 14; for effect on changes in body weight (in words): 0.001-0.008 mg/body i.v., days 0 to 14. The procedure:
The mixture was administered via the caudal vein. The number of grafted cells was 5×10^5 cells/body. The dose of the test substance was 0.001, 0.004 or 0.008 mg/body, and the dose of the positive control substance was 0.008 mg/body.
Observation period ranged from days 0 to 14 after the administration of the test substance. Life and death were confirmed every day during this period, and the general state was observed. Body weight measurement was performed twice a week.
The representative value of each test group was denoted as mean±standard deviation (mean±S.D.). Differences in mean values were examined as follows. The number of metastatic nodules was examined by Dunnett's multiple comparison test between the medium group and the cPA-19 group, and between the medium group and the cPA-20 group. The same was examined by the Student's T-test between the medium group and cPA-5 group. The number of metastatic lesions was examined by the Wilcoxon test using the medium group as a control. The number of animals having metastatic nodules or metastatic lesions was examined by Fisher's extract probability test using the medium group as a control. The significance levels were 1% and 5%.

The subject of series [5] is MM1 cells. To be noted: reported by Mukai et al., Int. J. Cancer 81, 918-922 (1999); cited from earlier work. This is another data set of the same source.
Series [6] relates to MM1 cells. As to conditions: Int. J. Cancer 81, 918-922 (1999), cited from earlier work.

For the molecule `CCCCCCCCCCCCCCCC(=O)OC[C@@H]1COP(=O)(O)O1` [cPA-5, Pal-cPA, reference compound], the “suppression of serum/LPA-independent invasion of HT-1080 cells (in words)” value in the series with HT-1080 cells is “suppressed”. In the series with MM1 cells [1], the “suppression of FBS-induced invasion (in words)” value is on record as “strongly suppress”. For the same molecule, the “change of intracellular cAMP concentration (in words)” value with MM1 cells [2] was “could not be confirmed”. Moreover, the “suppression of LPA-induced invasion (in words)” value with MM1 cells [3] (25 μM cPA derivative, 20 hours) is given as “suppressed”. Also, in series [4] (0.008 mg/body i.v.), the “Body weight (g) day 0” value stood at 15.9 ± 0.6 g, the “Body weight (g) day 4” value is 15.8 ± 0.9 g, the “Body weight (g) day 7” value is reported as 16.2 ± 1.0 g and the “Body weight (g) day 11” value worked out at 17.0 ± 0.8 g. Moreover, in series [4] (0.008 mg/body i.v.), the “Body weight (g) day 14” value was found to be 17.4 ± 1.0 g. The “body weight compared with the medium group at each measurement (in words)” value in series [4] is listed as “no significant difference”. Further, the “intracellular cAMP concentration of MM1 cells (in words)” value with MM1 cells [5] is “leads an increase of intracellular cAMP concentration”. For the same molecule, the “invasion suppressing action on LPA-induced invasion (in words)” value with MM1 cells [6] (reported by Mukai et al.) is “strongly suppress”. For the same molecule, the “suppressed LPA-induced invasion by” value in the series with MM1 cells [6] (studied by Mukai et al.) is “approximately 85%”.
Take carba-Ole-cPA [cPA-19]: the “invasion suppressing activity on LPA-induced invasion, carba-cPA at low concentration (in words)” value in the series on MM1 cells [3] is recorded as “stronger invasion suppressing activity than cPA-18”. In addition, in series [4] (0.001 mg/body i.v.), the “Body weight (g) day 0” value is on record as 15.9 ± 0.6 g, the “Body weight (g) day 4” value amounted to 15.5 ± 0.5 g, the “Body weight (g) day 7” value was 15.8 ± 0.7 g and the “Body weight (g) day 11” value turned out to be 16.5 ± 1.0 g. In addition, the “Body weight (g) day 14” value in series [4] (0.001 mg/body i.v.) is given as 17.1 ± 1.2 g. Further, in series [4] (0.004 mg/body i.v.), the “Body weight (g) day 0” value amounted to 15.9 ± 0.6 g, the “Body weight (g) day 4” value amounted to 16.0 ± 0.5 g, the “Body weight (g) day 7” value came to 16.1 ± 0.6 g and the “Body weight (g) day 11” value came to 16.7 ± 0.6 g. For the same molecule, in series [4] (0.004 mg/body i.v.), the “Body weight (g) day 14” value is listed as 17.6 ± 0.9 g. For the same molecule, in series [4] (0.008 mg/body i.v.), the “Body weight (g) day 0” value was found to be 15.9 ± 0.6 g, the “Body weight (g) day 4” value is 15.4 ± 0.5 g, the “Body weight (g) day 7” value was 15.9 ± 0.5 g and the “Body weight (g) day 11” value was 16.8 ± 0.5 g. For the same molecule, the “Body weight (g) day 14” value in series [4] (0.008 mg/body i.v.) came out at 17.0 ± 0.4 g. Moreover, in series [4], the “effect on changes in body weight (in words)” value is “no effect on changes in body weight” and the “body weight compared with the medium group at each measurement (in words)” value is reported as “no significant difference”.
carba-ΔPal-cPA [cPA-20]: the “invasion suppressing activity on LPA-induced invasion, carba-cPA at low concentration (in words)” value with MM1 cells [3] is “stronger invasion suppressing activity than cPA-18”. In addition, in series [4] (0.001 mg/body i.v.), the “Body weight (g) day 0” value is reported as 15.9 ± 0.6 g, the “Body weight (g) day 4” value amounted to 15.5 ± 0.3 g, the “Body weight (g) day 7” value is 16.1 ± 0.6 g and the “Body weight (g) day 11” value turned out to be 16.8 ± 0.4 g. In addition, the “Body weight (g) day 14” value in series [4] (0.001 mg/body i.v.) stood at 17.4 ± 0.6 g. Besides, in series [4] (0.004 mg/body i.v.), the “Body weight (g) day 0” value is 16.0 ± 0.6 g, the “Body weight (g) day 4” value is 16.0 ± 0.7 g, the “Body weight (g) day 7” value came out at 16.2 ± 0.6 g and the “Body weight (g) day 11” value came to 16.9 ± 0.7 g. Further, the “Body weight (g) day 14” value in series [4] (0.004 mg/body i.v.) came out at 17.5 ± 0.8 g. For the same molecule, in series [4] (0.008 mg/body i.v.), the “Body weight (g) day 0” value is reported as 15.9 ± 0.5 g, the “Body weight (g) day 4” value came out at 16.1 ± 0.8 g, the “Body weight (g) day 7” value amounted to 16.3 ± 0.8 g and the “Body weight (g) day 11” value worked out at 17.0 ± 0.9 g. Further, the “Body weight (g) day 14” value in series [4] (0.008 mg/body i.v.) was found to be 17.7 ± 0.8 g. In series [4], the “effect on changes in body weight (in words)” value was “no effect on changes in body weight” and the “body weight compared with the medium group at each measurement (in words)” value is listed as “no significant difference”.
